Laboratory results from US10479780B2, “Aminopyrazole derivatives” (Chugai Seiyaku Kabushiki Kaisha, priority 2015, dated 2019).
Like-named read-outs stand apart in the source and are kept apart here.

Tests used:
Assay type in all cases: biochemical
human Yes1 enzyme = biological target: T1, human Yes1 enzyme (Homo sapiens, UniProt P07947); assay: Yes1 enzyme inhibitory activity (time-resolved fluorometry, biotinylated peptide phosphorylation); details: read-out: YES_IC50
T1 construct: made in house
Method in brief: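 Inhibition was expressed against a compound-free control to give IC50, using TR-FRET read-out (Eu-cryptate anti-pTyr antibody, streptavidin-XL665).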

human Src enzyme = biological target: T2, human Src enzyme (Homo sapiens, UniProt P12931); assay: Src enzyme inhibitory activity (time-resolved fluorometry, biotinylated peptide phosphorylation); details: read-out: SRC_IC50
T2 construct: purchased Carna Biosciences, Inc. 08-173
Method in brief: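 Compounds were tested for blocking tyrosine phosphorylation of a biotinylated peptide substrate by recombinant human Src. Phosphorylated product was quantified by time-resolved fluorometry using europium cryptate and XL665 conjugates, and IC50 was calculated against the compound-free control.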

human Lck enzyme = biological target: T3, human Lck enzyme (Homo sapiens, UniProt P06239); assay: Lck enzyme inhibitory activity (time-resolved fluorometry, biotinylated peptide phosphorylation); details: read-out: LCK_IC50
T3 construct: purchased Carna Biosciences, Inc. 08-170
Method in brief: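 Readout pairs a europium cryptate-labelled anti-phosphotyrosine antibody with XL665-streptavidin, measured by time-resolved fluorescence. IC50 derived from percent inhibition against untreated controls.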

[1] = biotinylated peptide phosphorylation

T2 sequence (P12931 whole entry): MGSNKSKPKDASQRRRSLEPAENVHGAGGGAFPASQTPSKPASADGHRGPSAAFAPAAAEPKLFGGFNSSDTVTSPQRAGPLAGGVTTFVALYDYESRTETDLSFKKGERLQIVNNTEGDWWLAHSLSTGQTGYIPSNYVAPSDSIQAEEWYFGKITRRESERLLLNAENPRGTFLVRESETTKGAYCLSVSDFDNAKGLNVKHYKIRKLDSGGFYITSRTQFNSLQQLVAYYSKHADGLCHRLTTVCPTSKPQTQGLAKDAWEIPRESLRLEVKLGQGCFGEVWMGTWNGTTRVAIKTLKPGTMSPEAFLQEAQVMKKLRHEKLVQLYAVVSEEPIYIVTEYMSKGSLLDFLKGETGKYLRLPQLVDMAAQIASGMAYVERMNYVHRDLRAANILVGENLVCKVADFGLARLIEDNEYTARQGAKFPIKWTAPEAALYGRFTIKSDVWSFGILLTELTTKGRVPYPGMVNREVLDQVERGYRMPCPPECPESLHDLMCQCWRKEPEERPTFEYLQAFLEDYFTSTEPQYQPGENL
T1 sequence (P07947 whole entry): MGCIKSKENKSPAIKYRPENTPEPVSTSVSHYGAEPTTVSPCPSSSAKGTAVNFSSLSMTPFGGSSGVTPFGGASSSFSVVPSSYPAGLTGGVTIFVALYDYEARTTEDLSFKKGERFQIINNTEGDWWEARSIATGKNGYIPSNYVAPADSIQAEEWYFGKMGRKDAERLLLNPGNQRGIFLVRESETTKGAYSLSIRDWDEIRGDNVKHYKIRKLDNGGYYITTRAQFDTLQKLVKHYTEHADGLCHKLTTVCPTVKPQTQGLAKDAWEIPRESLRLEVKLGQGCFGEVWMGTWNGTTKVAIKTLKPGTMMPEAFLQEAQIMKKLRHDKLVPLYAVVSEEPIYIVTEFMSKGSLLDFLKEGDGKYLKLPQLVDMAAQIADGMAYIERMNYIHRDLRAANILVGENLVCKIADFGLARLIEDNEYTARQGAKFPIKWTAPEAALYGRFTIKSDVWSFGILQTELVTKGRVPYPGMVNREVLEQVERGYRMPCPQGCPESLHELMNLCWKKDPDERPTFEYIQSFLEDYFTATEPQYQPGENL
T3 sequence (P06239 whole entry): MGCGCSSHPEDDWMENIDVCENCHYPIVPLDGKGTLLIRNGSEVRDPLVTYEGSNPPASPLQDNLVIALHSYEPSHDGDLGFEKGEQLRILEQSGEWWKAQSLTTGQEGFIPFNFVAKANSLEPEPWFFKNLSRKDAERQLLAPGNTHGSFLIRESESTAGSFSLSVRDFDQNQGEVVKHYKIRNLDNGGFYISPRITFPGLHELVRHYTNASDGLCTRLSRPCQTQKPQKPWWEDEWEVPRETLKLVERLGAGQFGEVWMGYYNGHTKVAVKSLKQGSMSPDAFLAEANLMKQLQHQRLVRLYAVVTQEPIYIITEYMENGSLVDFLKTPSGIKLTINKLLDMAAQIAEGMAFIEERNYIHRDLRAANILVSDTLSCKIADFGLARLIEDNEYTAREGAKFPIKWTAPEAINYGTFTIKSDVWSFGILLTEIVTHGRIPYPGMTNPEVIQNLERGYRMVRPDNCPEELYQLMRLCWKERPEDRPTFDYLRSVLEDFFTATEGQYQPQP

SMILES | IC50 (human Yes1 enzyme; [1]) [nM] | IC50 (human Src enzyme; [1]) [nM] | IC50 (human Lck enzyme; [1]) [nM] | IC50 (human Yes1 enzyme) [nM] | IC50 (human Src enzyme) [nM] | IC50 (human Lck enzyme) [nM]
Cc1cc2cc(C(=O)c3cnn(-c4cnc(Oc5c(F)cccc5F)cc4C)c3N)[nH]c2cc1N1C(=O)N[C@@H](Cc2ccccc2)C1=O [Example 5-1-452, (5S)-3-[2-[5-amino-1-[6-(2,6-difluorophenoxy)-4-methylpyridin-3-yl]pyrazole-4-carbonyl]-5-methyl-1H-indol-6-yl]-5-benzylimidazolidine-2,4-dione] | 5.4 | 150 | 28 |  |  | 
Cc1cc(Oc2ccc(F)cc2)ncc1-n1ncc(C(=O)c2cc3cc(F)c(NS(=O)(=O)C4CC4)cc3[nH]2)c1N [Example 5-1-046, N-[2-[5-amino-1-[6-(4-fluorophenoxy)-4-methylpyridin-3-yl]pyrazole-4-carbonyl]-5-fluoro-1H-indol-6-yl]cyclopropanesulfonamide] |  |  |  | 7.9 | 160 | 110
CC(=O)N1CCC(c2cc3[nH]c(C(=O)c4cnn(-c5cnc(Oc6c(F)cccc6F)cc5C)c4N)cc3cc2OCC(F)F)CC1 [Example 4-17-001, 1-{4-{2-{5-amino-1-{6-(2,6-difluorophenoxy)-4-methylpyridin-3-yl}pyrazole-4-carbonyl}-5-(2,2-difluoroethoxy)-1H-indol-6-yl}piperidin-1-yl}ethanone] | 4.5 | 26 | 12 |  |  | 
Cc1cc(Oc2c(F)cccc2F)ncc1-n1ncc(C(=O)c2cc3cc(OC4CCN(C(C)C)CC4)c(N4CCC(N5CCOCC5)CC4)cc3[nH]2)c1N [Example 5-1-201, [5-amino-1-[6-(2,6-difluorophenoxy)-4-methylpyridin-3-yl]pyrazol-4-yl]-[6-(4-morpholin-4-ylpiperidin-1-yl)-5-(1-propan-2-ylpiperidin-4-yl)oxy-1H-indol-2-yl]methanone] |  |  |  | 0.25 | 3.5 | 3.2
Cc1cc2cc(C(=O)c3cnn(-c4cnc(Oc5ccccc5F)cc4C)c3N)[nH]c2cc1NS(=O)(=O)c1csc2ccccc12 [Example 5-1-467, N-[2-[5-amino-1-[6-(2-fluorophenoxy)-4-methylpyridin-3-yl]pyrazole-4-carbonyl]-5-methyl-1H-indol-6-yl]-1-benzothiophene-3-sulfonamide] | 24 | 3800 | 370 |  |  | 
Cc1cc(Oc2ccccc2F)ccc1-n1ncc(C(=O)c2cc3cc(OCCN4CC5CC(C4)N5S(C)(=O)=O)c(NS(C)(=O)=O)cc3[nH]2)c1N [Example 4-24-037] | 0.67 | 24 | 3.8 |  |  | 
COc1cc2cc(C(=O)c3cnn(-c4cnc(Oc5cccc(Cl)c5)cc4C)c3N)[nH]c2cc1NS(C)(=O)=O [Example 4-1-011, N-[2-[5-amino-1-[6-(3-chlorophenoxy)-4-methylpyridin-3-yl]pyrazole-4-carbonyl]-5-methoxy-1H-indol-6-yl]methanesulfonamide] | 5.5 | 170 | 41 |  |  | 
Cc1cc2cc(C(=O)c3cnn(-c4cnc(Oc5c(F)cccc5F)cc4C)c3N)[nH]c2cc1NS(=O)(=O)c1cncc(F)c1 [Example 5-1-546, N-[2-[5-amino-1-[6-(2,6-difluorophenoxy)-4-methylpyridin-3-yl]pyrazole-4-carbonyl]-5-methyl-1H-indol-6-yl]-5-fluoropyridine-3-sulfonamide] | 6.1 | 680 | 78 |  |  | 
Cc1cc(Oc2c(F)cccc2F)ncc1-n1ncc(C(=O)c2cc3cc(OCC(F)F)c(-c4cnn(C)c4)cc3[nH]2)c1N [Example 5-1-264, [5-amino-1-[6-(2,6-difluorophenoxy)-4-methylpyridin-3-yl]pyrazol-4-yl]-[5-(2,2-difluoroethoxy)-6-(1-methylpyrazol-4-yl)-1H-indol-2-yl]methanone] |  |  |  | 5.2 | 26 | 21
Cc1cc(Oc2c(F)cccc2F)ncc1-n1ncc(C(=O)c2cc3cc(OCC(F)F)c(NS(=O)(=O)C4CCCCC4)cc3[nH]2)c1N [Example 5-1-315, N-[2-[5-amino-1-[6-(2,6-difluorophenoxy)-4-methylpyridin-3-yl]pyrazole-4-carbonyl]-5-(2,2-difluoroethoxy)-1H-indol-6-yl] cyclohexanesulfonamide] |  |  |  | 8.1 | 330 | 130
Cc1cc(Oc2c(F)cccc2F)ncc1-n1ncc(C(=O)c2cc3cc(F)c(NS(=O)(=O)c4cccc(Cl)c4)cc3[nH]2)c1N [Example 5-1-559, N-[2-[5-amino-1-[6-(2,6-difluorophenoxy)-4-methylpyridin-3-yl]pyrazole-4-carbonyl]-5-fluoro-1H-indol-6-yl]-3-chlorobenzenesulfonamide] | 17 | 2400 | 810 |  |  | 
Cc1cc2cc(C(=O)c3cnn(-c4cnc(Oc5cc(F)ccc5F)cc4C)c3N)[nH]c2cc1NS(C)(=O)=O [Example 5-1-081, N-[2-[5-amino-1-[6-(2,5-difluorophenoxy)-4-methylpyridin-3-yl]pyrazole-4-carbonyl]-5-methyl-1H-indol-6-yl]methanesulfonamide] |  |  |  | 2.4 | 110 | 6.4
Cc1cc(Oc2c(F)cccc2F)ncc1-n1ncc(C(=O)c2cc3cc(OC(F)F)c(NC4CN(S(C)(=O)=O)C4)cc3[nH]2)c1N [Example 5-1-079, [5-amino-1-[6-(2,6-difluorophenoxy)-4-methylpyridin-3-yl]pyrazol-4-yl]-[5-(difluoromethoxy)-6-[(1-methylsulfonylazetidin-3-yl)amino]-1H-indol-2-yl]methanone] |  |  |  | 1 | 20 | 3.8
Cc1cc2cc(C(=O)c3cnn(-c4cnc(Oc5c(F)cccc5F)cc4C)c3N)[nH]c2cc1N1C(=O)NC2(COC2)C1=O [Example 5-1-404, 7-[2-[5-amino-1-[6-(2,6-difluorophenoxy)-4-methylpyridin-3-yl]pyrazole-4-carbonyl]-5-methyl-1H-indol-6-yl]-2-oxa-5,7-diazaspiro[3.4] octane-6,8-dione] | 1.7 | 48 | 2.6 |  |  | 
Cc1cc2cc(C(=O)c3cnn(-c4cnc(Oc5ccccc5F)cc4C)c3N)[nH]c2cc1NS(=O)(=O)CC(=O)N1CCOCC1 [Example 4-15-001, N-(2-(5-amino-1-(6-(2-fluorophenoxy)-4-methylpyridin-3-yl)-1H-pyrazole-4-carbonyl)-5-methyl-1H-indol-6-yl)-2-morpholino-2-oxoethanesulfonamide] | 1.1 | 18 | 9.9 |  |  | 
Cc1cc2cc(C(=O)c3cnn(-c4ccc(Oc5ccccc5F)cc4C)c3N)[nH]c2cc1N1C(=O)NC2(CCCC2)C1=O [Example 5-1-373, 3-[2-[5-amino-1-[4-(2-fluorophenoxy)-2-methylphenyl]pyrazole-4-carbonyl]-5-methyl-1H-indol-6-yl]-1,3-diazaspiro[4.4]nonane-2,4-dione] |  |  |  | 3.1 | 48 | 14
Cc1cc(Oc2c(F)cccc2F)ncc1-n1ncc(C(=O)c2cc3cc(OCC(F)F)c(N4C(=O)NC5(CCN(C6COC6)C5)C4=O)cc3[nH]2)c1N (stereo not drawn) [Example 5-1-352, 3-[2-[5-amino-1-[6-(2,6-difluorophenoxy)-4-methylpyridin-3-yl]pyrazole-4-carbonyl]-5-(2,2-difluoroethoxy)-1H-indol-6-yl]-7-(oxetan-3-yl)-1,3,7-triazaspiro[4.4]nonane-2,4-dione] |  |  |  | 11 | 160 | 17
Cc1cc(Oc2c(F)cccc2F)ncc1-n1ncc(C(=O)c2cc3cc(OCC(F)F)c(-c4cncnc4)cc3[nH]2)c1N [Example 5-1-262, [5-amino-1-[6-(2,6-difluorophenoxy)-4-methylpyridin-3-yl]pyrazol-4-yl]-[5-(2,2-difluoroethoxy)-6-pyrimidin-5-yl-1H-indol-2-yl]methanone] |  |  |  | 2.3 | 6.4 | 12
Cc1cc(Oc2c(F)cccc2F)ncc1-n1ncc(C(=O)c2cc3cc(OCC(F)F)c(C4CCN(C(=O)CN)CC4)cc3[nH]2)c1N [Example 4-18-001, 2-amino-1-{4-{2-{5-amino-1-[6-(2,6-difluorophenoxy)-4-methylpyridin-3-yl]pyrazole-4-carbonyl}-5-(2,2-difluoroethoxy)-1H-indol-6-yl}piperidin-1-yl}ethanone] | 3.2 | 24 | 8.2 |  |  | 
Cc1cc(Oc2ccccc2F)ccc1-n1ncc(C(=O)c2cc3cc(OC(F)F)c(C4CCN(S(=O)(=O)C5CC5)CC4)cc3[nH]2)c1N [Example 4-17-004, [5-amino-1-[4-(2-fluorophenoxy)-2-methylphenyl]pyrazol-4-yl]-[6-(1-cyclopropylsulfonylpiperidin-4-yl)-5-(difluoromethoxy)-1H-indol-2-yl]methanone] | 9.6 | 22 | 17 |  |  | 
Cc1cc(Oc2c(F)cccc2F)ncc1-n1ncc(C(=O)c2cc3cc(OC4CCN(C5CS(=O)(=O)C5)CC4)c(-c4ccccc4C(F)(F)F)cc3[nH]2)c1N [Example 5-1-388, [5-amino-1-[6-(2,6-difluorophenoxy)-4-methylpyridin-3-yl]pyrazol-4-yl]-[5-[1-(1,1-dioxothietan-3-yl)piperidin-4-yl]oxy-6-[2-(trifluoromethyl)phenyl]-1H-indol-2-yl] methanone] |  |  |  | 4.2 | 220 | 47
Cc1cc(Oc2cc(F)ccc2F)cc(F)c1-n1ncc(C(=O)c2cc3cc(NS(C)(=O)=O)c(F)cc3[nH]2)c1N [Example 4-2-101, N-[2-[5-amino-1-[4-(2,5-difluorophenoxy)-2-fluoro-6-methylphenyl]pyrazole-4-carbonyl]-6-fluoro-1H-indol-5-yl]methanesulfonamide] | 0.74 | 50 | 2.9 |  |  | 
